From patent US20060165683A1, “Methods and compositions for control of bone formation via modulation of sympathetic tone” (priority 2001, published 2006) come the findings set out here.

One experiment concerns wt mice. Briefly: Long-term isoproterenol treatment of wt mice. In kind it is in vivo, mouse. As for the experimental part:
Wildtype (C57BL/6J) and mutant (C57BL/6J A^y/a, C57BL/6J ob/ob) mice were obtained from the Jackson laboratory and adrenal medullectomized mice from Harlan Tecklad laboratory. Dbh−/− mice were rescued as previously described (Thomas et al., 1998, Neurochem 70:2468-2476). Isoproterenol (Sigma) was injected intraperitoneally (ip) once daily for 6 weeks at 30 mg/kg (wt) or 3 mg/kg (ob/ob). Propranolol (Sigma) was added to the drinking water at a concentration of 0.5 g/l. For ICV infusion, a 28-gauge cannula (Brain infusion kit II, Alza) was implanted into the third ventricle as previously described infusing human leptin (Sigma) at 8 ng/hr or MT-II at 125 ng/hr (Phoenix Pharmaceuticals) for 28 days (see, e.g., Ducy et al., 2000, Cell 100: 197-207). The cannula was connected to an osmotic pump (Alza) placed in the dorsal subcutaneous space of the animal. For parabiosis longitudinal incisions were made in the skin and in the peritoneal cavity along one side on each mouse. Edges of the incisions were connected by suture to induce coelioanastomosis. Cross-circulation was quantified by injecting 1 ml/kg 0.25% Evans blue into the tail vein of one mouse of the parabiosed pair. After 30 min. blood was collected from both mice by retroorbital bleeding and the blood exchange rate was calculated according to standard techniques (see, e.g., Harris & Martin, 1984, Am J Physiol 247:R380-386). […] Two weeks after parabiosis a pump delivering leptin ICV in one animal of each pair was implanted. For GTG lesioning, 4-week-old C57BL/6J mice were given a single ip injection of either PBS or GTG (0.5 mg/g). For MSG lesioning, 2 day-old C57BL/6J pups were injected daily subcutaneously with either PBS or MSG (2 mg/g) for 10 days.
Histological analyses were performed on undecalcified sections stained by von Kossa and counterstained by von Gieson (see, e.g., Ducy et al., 2000, Cell 100:197-207). Static and dynamic histomorphometric analyses were performed according to standard protocols (see, e.g., Parfitt et al., 1987, J Bone Miner Res 6:595-610) using the Osteomeasure Analysis System (Osteometrics, Atlanta). Six to 12 animals were analyzed for each group. Statistical significance was assessed by Student's t test.
To address this point one month-old ob/ob mice were treated for 6 weeks with the β-adrenergic agonist isoproterenol or vehicle. […] To determine the role of the SNS in animals that have none of the metabolic and neurological abnormalities caused by leptin deficiency, this experiment was repeated in wt mice.

The test system of experiment [1] is osteoblasts in calvariae of newborn mice. Description: In vivo osteoblast proliferation assay (BrdU labeling, calvariae). Further details: species or system mouse. The conditions noted are these: newborn wt mice treated daily for 5 days; 40 μg isoproterenol or 4 μg dexamethasone. On the procedure: Specimens were embedded in paraffin and sectioned at 6 μm. Brains were stained with 0.1% cresyl violet using standard procedures. Immunohistochemistry was performed according to standard protocols (see, e.g., Ausubel, 1995, Current Protocols in Molecular Biology, New York). […] BrdU incorporation was detected by immunohistochemistry using Zymed BrdU staining kit (Zymed Laboratories Inc.). Four pups per treatment were analyzed and 10 calvariae sections were counted per animal. NovaRED was used as a chromogenic peroxidase substrate. Sections were counterstained with hematoxylin.
For orientation: Uptake of a labelled nucleoside into DNA is a usual measure of proliferation.

In another experiment the test system is MSG-lesioned ob/ob mice. Description: Leptin ICV infusion in MSG-lesioned ob/ob mice. It is filed as in vivo, mouse. On the procedure: Wildtype (C57BL/6J) and mutant (C57BL/6J A^y/a, C57BL/6J ob/ob) mice were obtained from the Jackson laboratory and adrenal medullectomized mice from Harlan Tecklad laboratory. Dbh−/− mice were rescued as previously described (Thomas et al., 1998, Neurochem 70:2468-2476). Isoproterenol (Sigma) was injected intraperitoneally (ip) once daily for 6 weeks at 30 mg/kg (wt) or 3 mg/kg (ob/ob). Propranolol (Sigma) was added to the drinking water at a concentration of 0.5 g/l. For ICV infusion, a 28-gauge cannula (Brain infusion kit II, Alza) was implanted into the third ventricle as previously described infusing human leptin (Sigma) at 8 ng/hr or MT-II at 125 ng/hr (Phoenix Pharmaceuticals) for 28 days (see, e.g., Ducy et al., 2000, Cell 100: 197-207). The cannula was connected to an osmotic pump (Alza) placed in the dorsal subcutaneous space of the animal. For parabiosis longitudinal incisions were made in the skin and in the peritoneal cavity along one side on each mouse. Edges of the incisions were connected by suture to induce coelioanastomosis. Cross-circulation was quantified by injecting 1 ml/kg 0.25% Evans blue into the tail vein of one mouse of the parabiosed pair. After 30 min. blood was collected from both mice by retroorbital bleeding and the blood exchange rate was calculated according to standard techniques (see, e.g., Harris & Martin, 1984, Am J Physiol 247:R380-386). […]

Regarding `CC(C)NCC(O)c1ccc(O)c(O)c1` (centres unmarked) [isoproterenol], in the experiment with wt mice, the “expression of uncoupling protein 1 (Ucp1) in brown adipose tissue” value is “increased”. Moreover, the bone mass entry with wt mice (30 mg/kg ip once daily, 6 weeks) is given as “significantly decreased”. In the experiment with wt mice (30 mg/kg, 6 weeks), the body weight result is “without affecting”, the bone formation rate result was “significantly decreased” and the osteoblast number result is “significantly decreased”. In addition, the “number of BrdU positive cells in calvariae compared to control mice (osteoblast proliferation)” value in experiment [1] is recorded as “nearly two-fold reduction”.

B1: leptin: polypeptide hormone, product of the ob gene; human leptin (Sigma) infused ICV (protein)
chain: VPIQKVQDDTKTLIKTIVTRINDISHTQSVSAKQRVTGLDFIPGLHPILSLSKMDQTLAVYQQVLTSLPSQNVLQIANDLENLRDLLHLLAFSKSCSLPQTSGLQKPESLDGVLEASLYSTEVVALSRLQGSLQDILQQLDVSPEC
For B1, in the experiment with MSG-lesioned ob/ob mice, the Bone Volume result is “decreases” and the body weight entry is reported as “does not affect”.
